According to patent publication US7659394B2 (Pfizer Inc, priority 2004, dated 2010):

Experiments:
[1] = biological target: T1, human norepinephrine transporter (Homo sapiens, UniProt P23975); assay: hNET receptor binding ([125I]-RTI-55 radioligand binding); conditions: membranes of HEK-293 cells transfected with human norepinephrine transporter, IC50 converted to Ki by Cheng-Prusoff, read-out: hNET (Ki)
T1 construct: host or cells: HEK-293
Excerpt: (§1) The ability of the compounds of this invention to bind to the hNET and serotonin SERT receptor can be determined using conventional radiolig and receptor binding assays. The receptors can be heterologously expressed in cell lines and experiments conducted in membrane preparations from the cell lines using procedures outlined below. IC50 concentrations can be determined by nonlinear regression of concentration-dependent reduction in specific binding. The Cheng-Prussoff equation can be used to convert the IC50 to Ki concentrations.
Cell pastes of HEK-293 cells transfected with the human norepinephrine transporter were supplied by the Pfizer Ann Arbor Protein Expression and Production group. […] Aliquots of membranes (5 mg/ml protein) were stored in liquid nitrogen until used.
(§2) The reaction was incubated by gentle agitation for 90 min at room temperature and was terminated by filtration through Whatman GF/C filter plates using a Brandel 96-well plate harvester. […] Test compounds were run in duplicate, and specific binding was defined as the difference between binding in the presence and absence of 10 μM desipramine.
(§3) Excel and GraphPad Prism software were used for data calculation and analysis. IC50 values were converted to Ki values using the Cheng-Prusoff equation.

[2] = biological target: T2, human seritonin transporter (Homo sapiens, UniProt P31645); assay: hSERT receptor binding ([125I]-RTI-55 radioligand binding); conditions: membranes of HEK-293 cells transfected with human seritonin transporter, IC50 converted to Ki by Cheng-Prusoff, read-out: SERT (Ki)
T2 construct: host or cells: HEK-293
T2 sequence (P31645 whole entry): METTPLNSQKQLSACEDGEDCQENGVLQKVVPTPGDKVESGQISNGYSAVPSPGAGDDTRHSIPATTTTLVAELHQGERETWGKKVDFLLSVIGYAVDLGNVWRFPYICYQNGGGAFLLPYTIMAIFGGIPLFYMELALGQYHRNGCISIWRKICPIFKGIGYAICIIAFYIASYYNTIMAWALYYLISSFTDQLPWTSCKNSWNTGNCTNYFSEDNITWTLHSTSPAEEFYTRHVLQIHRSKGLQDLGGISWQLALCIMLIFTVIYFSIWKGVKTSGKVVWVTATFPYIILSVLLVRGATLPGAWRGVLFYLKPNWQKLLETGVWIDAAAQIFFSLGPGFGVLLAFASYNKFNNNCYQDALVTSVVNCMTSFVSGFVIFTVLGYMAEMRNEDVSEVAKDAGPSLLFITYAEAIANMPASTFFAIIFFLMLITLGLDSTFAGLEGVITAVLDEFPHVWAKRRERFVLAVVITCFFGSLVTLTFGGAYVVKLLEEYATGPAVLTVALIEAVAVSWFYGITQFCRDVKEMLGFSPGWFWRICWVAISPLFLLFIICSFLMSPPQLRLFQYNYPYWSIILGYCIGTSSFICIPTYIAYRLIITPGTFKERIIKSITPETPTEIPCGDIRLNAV
Excerpt: as §1
Cell pastes of HEK-293 cells transfected with the human seritonin transporter were supplied by the Pfizer Ann Arbor Protein Expression and Production group. […] Aliquots of membranes (5 mg/ml protein) were stored in liquid nitrogen until used.
as §2, with “[…] citalopram.” for “μM desipramine.”
as §3

T1 sequence (P23975 whole entry): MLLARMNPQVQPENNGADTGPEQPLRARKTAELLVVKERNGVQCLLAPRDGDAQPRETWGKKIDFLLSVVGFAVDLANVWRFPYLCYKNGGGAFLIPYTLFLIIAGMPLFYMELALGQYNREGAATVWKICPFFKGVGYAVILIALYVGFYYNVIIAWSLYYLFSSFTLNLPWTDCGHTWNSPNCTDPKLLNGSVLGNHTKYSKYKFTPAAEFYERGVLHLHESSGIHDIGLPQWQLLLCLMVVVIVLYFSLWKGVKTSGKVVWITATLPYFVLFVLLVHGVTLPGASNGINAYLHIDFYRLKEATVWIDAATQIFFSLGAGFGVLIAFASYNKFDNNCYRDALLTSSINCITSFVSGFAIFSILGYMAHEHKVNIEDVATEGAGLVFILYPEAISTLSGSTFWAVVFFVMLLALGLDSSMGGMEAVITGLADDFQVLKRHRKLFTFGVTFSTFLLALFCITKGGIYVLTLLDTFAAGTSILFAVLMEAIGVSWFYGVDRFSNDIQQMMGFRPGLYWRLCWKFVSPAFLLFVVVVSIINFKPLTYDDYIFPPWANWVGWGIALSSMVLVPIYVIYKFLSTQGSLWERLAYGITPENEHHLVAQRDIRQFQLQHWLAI

| Compound | Ki [1] | Ki [2] |
| --- | --- | --- |
| c1ccc([C@H](Oc2ccccc2C2CCCCC2)[C@@H]2CNCCO2)cc1 [Example 56, (S)-2-[(S)-(2-Cyclohexyl-phenoxy)-phenyl-methyl]-morpholine] | 41 nM | 2460 nM |
| FC(F)Oc1ccccc1O[C@@H](c1ccccc1)[C@@H]1CNCCO1 [Example 57, (S)-2-[(S)-(2-Difluoromethoxy-phenoxy)-phenyl-methyl]-morpholine] | 24 nM | 94 nM |
| FCCOc1ccccc1O[C@@H](c1ccccc1)[C@@H]1CNCCO1 [Example 58, (S)-2-{(S)-[2-(2-Fluoro-ethoxy)-phenoxy]-phenyl-methyl}-morpholine] | 7.4 nM | 965 nM |
| CC(C)Cc1cc(F)ccc1O[C@@H](c1ccccc1)[C@@H]1CNCCO1 [Example 59, (S)-2-[(S)-(4-Fluoro-2-isobutyl-phenoxy)-phenyl-methyl]-morpholine] | 61 nM | 206 nM |
| Fc1cccc(Cl)c1O[C@@H](c1ccccc1)[C@@H]1CNCCO1 [Example 60] | 14 nM | 78 nM |
| c1ccc([C@H](Oc2ccccc2CC2CC2)[C@@H]2CNCCO2)cc1 [Example 61, (S)-2-[(S)-(2-Cyclopropylmethyl-phenoxy)-phenyl-methyl]-morpholine] | 68 nM | 6600 nM |
| Clc1cccc(Cl)c1O[C@@H](c1ccccc1)[C@@H]1CNCCO1 [Example 62, (S)-2-[(S)-(2,6-Dichloro-phenoxy)-phenyl-methyl]-morpholine] | 12 nM | 65 nM |
| CCOCc1ccccc1O[C@@H](c1ccccc1)[C@@H]1CNCCO1 [Example 63, (S)-2-[(S)-(2-Ethoxymethyl-phenoxy)-phenyl-methyl]-morpholine] | 28 nM | 2540 nM |
| CN(C)c1ccccc1O[C@@H](c1ccccc1)[C@@H]1CNCCO1 [Example 64, (2S,3S)-Dimethyl-[2-(morpholin-2-yl-phenyl-methoxy)-phenyl]-amine] | 119 nM | ≥ 10000 nM |
| Fc1ccc(Oc2ncccc2O[C@@H](c2ccccc2)[C@@H]2CNCCO2)cc1 [Example 65, (S)-2-{(S)-[2-(4-Fluoro-phenoxy)-pyridin-3-yloxy]-phenyl-methyl}-morpholine] | 85 nM | 1200 nM |
| Fc1ccc([C@H](Oc2c(F)cccc2F)[C@H]2CNCCO2)cc1 [Example 66, (R)-2-[(S)-(2,6-Difluoro-phenoxy)-(4-fluoro-phenyl)-methyl]-morpholine] | 81 nM | 176 nM |
| Brc1ccccc1O[C@@H](c1ccccc1)[C@H]1CNCCO1 [Example 67, (R)-2-[(S)-(2-Bromo-phenoxy)-phenyl-methyl]-morpholine] | 21 nM | 93 nM |
| Fc1ccc(O[C@@H](c2ccccc2)[C@@H]2CNCCO2)c(F)c1 [Example 68, (S)-2-[(S)-(2,4-Difluoro-phenoxy)-phenyl-methyl]-morpholine] | 19 nM | 660 nM |
| Fc1ccc(O[C@@H](c2ccccc2)[C@@H]2CNCCO2)cc1 [Example 69, (S)-2-[(S)-(4-Fluoro-phenoxy)-phenyl-methyl]-morpholine] | 26 nM | 1890 nM |
| c1ccc([C@H](Oc2ccccc2C2CC2)[C@H]2CNCCO2)cc1 [Example 71, (R)-2-[(S)-(2-Cyclopropyl-phenoxy)-phenyl-methyl]-morpholine] | 50 nM | 65 nM |
| Clc1ccccc1-c1ccccc1OCC1CNCCO1 (centres unmarked) [Example 73, 2-(2′-Chloro-biphenyl-2-yloxymethyl)-morpholine] | 595 nM | ≥ 10000 nM |
| COc1ccccc1-c1ccccc1OCC1CNCCO1 (centres unmarked) [Example 74, 2-(2′-Methoxy-biphenyl-2-yloxymethyl)-morpholine] | 55 nM | ≥ 10000 nM |
| Fc1ccc(-c2cc(F)ccc2OCC2CNCCO2)cc1 [Example 76, (R)- and (S)-2-(5,4′-Difluoro-biphenyl-2-yloxymethyl)-morpholine] | 64 nM | 349 nM |
| c1ccc(Oc2ncccc2OC[C@H]2CNCCO2)cc1 [Example 77, (R)-2-(2-Phenoxy-pyridin-3-yloxymethyl)-morpholine] | 3160 nM | ≥ 10000 nM |
| Fc1ccc(Oc2ncccc2OC[C@@H]2CNCCO2)cc1F [Example 79, (S)-2-[2-(3,4-Difluoro-phenoxy)-pyridin-3-yloxymethyl]-morpholine] | 10 nM | 9650 nM |

| Compound | Ki [1] | Ki [2] |
| --- | --- | --- |
| c1ccc(O[C@@H](c2ccccc2)[C@@H]2CNCCO2)cc1 [Example 80, (S)-2-((S)-Phenoxy-phenyl-methyl)-morpholine] | 7.5 nM | 3670 nM |
| Fc1ccc(-c2ccccc2O[C@@H](c2ccccc2)[C@@H]2CNCCO2)cc1 [Example 81, (S)-2-[(S)-(4′-Fluoro-biphenyl-2-yloxy)-phenyl-methyl]-morpholine] | 9.6 nM | 4320 nM |
| Cc1ccc(-c2ccccc2O[C@@H](c2ccccc2)[C@@H]2CNCCO2)cc1 [Example 82, (S)-2-[(S)-(4′-Methyl-biphenyl-2-yloxy)-phenyl-methyl]-morpholine] | 11 nM | 2610 nM |
| c1ccc(COc2ccccc2O[C@@H](c2ccccc2)[C@@H]2CNCCO2)cc1 [Example 83, (S)-2-[(S)-(2-Benzyloxy-phenoxy)-phenyl-methyl]-morpholine] | 3.9 nM | 3120 nM |
| Fc1ccccc1O[C@@H](c1ccccc1)[C@@H]1CNCCO1 [Example 84, (S)-2-[(S)-(2-Fluoro-phenoxy)-phenyl-methyl]-morpholine] | 7.3 nM | 4860 nM |
| OCc1ccccc1O[C@@H](c1ccccc1)[C@@H]1CNCCO1 [Example 85, (2S,3S)-[2-(Morpholin-2-yl-phenyl-methoxy)-phenyl]-methanol] | 37 nM | 869 nM |
| Fc1ccccc1-c1ccccc1O[C@@H](c1ccccc1)[C@@H]1CNCCO1 [Example 86, (S)-2-[(S)-(2′-Fluoro-biphenyl-2-yloxy)-phenyl-methyl]-morpholine] | 14 nM | 8090 nM |
| Fc1ccc(OC(c2ccccn2)[C@H]2CNCCO2)c(F)c1 (stereo partly drawn) [Example 87, (2R,3R)-2-[(2,4-Difluoro-phenoxy)-pyridin-2-yl-methyl]-morpholine] | 2890 nM | 953 nM |
| Fc1ccc(Oc2ncccc2OC[C@H]2CNCCO2)cc1 [Example 89, (2R)-2-[2-(4-Fluoro-phenoxy)-pyridin-3-yloxymethyl]-morpholine] | 4110 nM | ≥ 10000 nM |
| CCOc1ccccc1O[C@H](c1cccnc1)[C@H]1CNCCO1 [Example 90, (2R)-2-[(R)-(2-Ethoxy-phenoxy)-pyridin-3-yl-methyl]-morpholine] | 211 nM | 5050 nM |
| N#Cc1ccccc1O[C@@H](c1ccccc1)[C@@H]1CNCCO1 [Example 93, 2-[(S)-(2S)-morpholin-2-yl(phenyl)methoxy]benzonitrile] | 11 nM | 5600 nM |
| Fc1ccc(Cl)c(OC(c2ccccc2)[C@@H]2CNCCO2)c1 (stereo partly drawn) [Example 94, (2S)-2-[(2-chloro-5-fluorophenoxy)(phenyl)methyl]morpholine] | 8 nM | 811 nM |
| COc1cccc(F)c1OC(c1ccccc1)[C@@H]1CNCCO1 (stereo partly drawn) [Example 95, (2S)-2-[(2-fluoro-6-methoxyphenoxy)(phenyl)methyl]morpholine] | 3 nM | 3410 nM |
| Fc1ccc(F)c(O[C@@H](c2ccccc2)[C@@H]2CNCCO2)c1 [Example 96, (2S)-2-[(S)-(2,5-difluorophenoxy)(phenyl)methyl]morpholine] | 12 nM | 4450 nM |
| CCCc1ccccc1O[C@@H](c1ccccc1)[C@@H]1CNCCO1 [Example 97, (2S)-2-[(S)-phenyl(2-propylphenoxy)methyl]morpholine] | 9 nM | 471 nM |
| CCc1ccccc1O[C@@H](c1ccccc1)[C@@H]1CNCCO1 [Example 98, (2S)-2-[(S)-(2-ethylphenoxy)(phenyl)methyl]morpholine] | 22 nM | 1140 nM |
| c1ccc(COc2ccccc2O[C@@H](c2ccccn2)[C@@H]2CNCCO2)cc1 [Example 102, (2S)-2-[(S)-[2-(benzyloxy)phenoxy](pyridin-2-yl)methyl]morpholine] | 82 nM | 5740 nM |
| CC(C)c1ccccc1O[C@@H](c1ccccn1)[C@@H]1CNCCO1 [Example 103, (2S)-2-[(S)-(2-isopropylphenoxy)(pyridin-2-yl)methyl]morpholine] | 13 nM | 6070 nM |
| CCOc1ccccc1O[C@@H](c1cccc(C)n1)[C@@H]1CNCCO1 [Example 107, (2S)-2-[(S)-(2-ethoxyphenoxy)(6-methylpyridin-2-yl)methyl]morpholine] | 27 nM | 3670 nM |
| CCOc1ccccc1O[C@@H](c1cccc(OC)n1)[C@@H]1CNCCO1 [Example 108, (2S)-2-[(S)-(2-ethoxyphenoxy)(6-methoxypyridin-2-yl)methyl]morpholine] | 28 nM | 676 nM |
